The values that follow come from patent US20240124444A1 (Celgene Corporation, priority 2020, published 2024).

The assay concerns C. parvum strain UGA1. Description: C. parvum growth inhibition assay (Nluc luminescence in HCT-8 cells). The format is cell-based, Cryptosporidium parvum. Conditions: Cryptosporidium parvum; for inhibition at 1 µM / inhibition at 10 µM: HCT-8; for inhibition at 1 µM: read-out: % inh @ 1 uM C. parvum; for inhibition at 10 µM: read-out: % inh @ 10 uM C. parvum; for EC50: HCT-8, 48 h, C. parvum growth inhibition in HCT-8 cells, 48 hours, 6 concentrations 10-0.04 μM.

Setting [1] is: single point inhibition @ 10 uM.
Where [2] appears, read: single point inhibition at 1 uM.
Setting [3] is: single point inhibition at 10 uM.

Each structure is given as a SMILES string. Read-outs that look alike come from different tables or passages of the source.

Regarding `COc1cccc(Nc2cc3[nH]c(-c4cnn(C)c4)cc3cn2)c1` [Example 197, N-(3-methoxyphenyl)-2-(1-methyl-1H-pyrazol-4-yl)-1H-pyrrolo[3,2-c]pyridin-6-amine], for the setting “single point inhibition @ 1 uM”, the inhibition at 1 µM was in the range of 0 to 33%. Moreover, the inhibition at 10 µM under setting [1] lay within 67 to 100%.

For `Cc1nn(C)cc1C(=O)Nc1cc2[nH]c(-c3ccnc(OC(C)C(F)(F)F)n3)cc2cn1` (stereo in doubt) [Example 136, (S)-1,3-dimethyl-N-(2-(2-(1,1,1-trifluoropropan-2-yloxy)pyrimidin-4-yl)-1H-pyrrolo[3,2-c]pyridin-6-yl)-1H-pyraozle-4-carboxamide], the inhibition at 1 µM (single point inhibition @ 1 uM) fell in the range of 0 to 33%. In addition, under setting [1], the inhibition at 10 µM fell in the range of 67 to 100%.

As for `Cc1cc(-c2cc3cnc(NC(=O)C4CC4)cc3n2CCN(C)C)ccn1` [Example 333, N-(1-(2-(dimethylamino)ethyl)-2-(2-methylpyridin-4-yl)-1H-pyrrolo[3,2-c]pyridin-6-yl)cyclopropanecarboxamide], the inhibition at 1 µM under setting [2] is 0 to 33%. The inhibition at 10 µM under setting [3] was in the range of 0 to 33%.

Usually EC50 stands for the midpoint of the concentration-response curve. Read a low EC50 as greater potency. Take `Cc1ccnc(-c2cc3cnc(NC4CCOCC4)cc3[nH]2)c1` [Example 350, 2-(4-methylpyridin-2-yl)-N-(tetrahydro-2H-pyran-4-yl)-1H-pyrrolo[3,2-c]pyridin-6-amine]: the concentration giving a half-maximal response (EC50) was more than 1 µM.

For `CCOc1nccc(-c2cc3cnc(NC(=O)c4cnn(CCO)c4C)cc3[nH]2)n1` [Example 230, N-(2-(2-ethoxypyrimidin-4-yl)-1H-pyrrolo[3,2-c]pyridin-6-yl)-1-(2-hydroxyethyl)-5-methyl-1H_ pyrazole-4-carboxamide], under setting [2], the inhibition at 1 µM was in the range of 0 to 33%. Also, the inhibition at 10 µM under setting [3] lay within 33 to 66%.

Take `COc1cc(-c2cc3cnc(NC(=O)c4cnn(C)c4)cc3[nH]2)ccn1` [Example 286, N-(2-(2-methoxypyridin-4-yl)-1H-pyrrolo[3,2-c]pyridin-6-yl)-1-methyl-1H-pyrazole-4-carboxamide]: the inhibition at 1 µM under setting [2] was 0 to 33%. Moreover, under setting [3], the inhibition at 10 µM was in the range of 0 to 33%.

`Cc1cc(-c2cc3cnc(NC(=O)CN4CCCC4)cc3n2C)ncn1` [Example 128, N-(1-methyl-2-(6-methylpyrimidin-4-yl)-1H-pyrrolo[3,2-c]pyridin-6-yl)-2-(pyrrolidin-1-yl)acetamide] showed a 50% effective concentration (EC50) of more than 1 µM.

Turning to `Cn1cc(C(=O)Nc2cc3[nH]c(-c4ccnc(OCC(F)F)n4)cc3cn2)cn1` [Example 310, N-(2-(2-(2,2-difluoroethoxy)pyrimidin-4-yl)-1H-pyrrolo[3,2-c]pyridin-6-yl)-1-methyl-1H-pyrazole-4-carboxamide], the inhibition at 1 µM under setting [2] is 0 to 33%. Also, the inhibition at 10 µM under setting [3] lay in the range of 0 to 33%.

As for `Cc1nn(C)cc1C(=O)Nc1cc2[nH]c(-c3ccnc(OCC(F)F)n3)cc2cn1` [Example 317, N-(2-(2-(2,2-difluoroethoxy)pyrimidin-4-yl)-1H-pyrrolo[3,2-c]pyridin-6-yl)-1,3-dimethyl-1H-pyrazole-4-carboxamide], the inhibition at 1 µM under setting [2] was 0 to 33%. The inhibition at 10 µM under setting [3] is 0 to 33%.

Turning to `COC(=O)Nc1cc2[nH]c(-c3ccnc(C)c3)cc2cn1` [Example 174, methyl 2-(2-methylpyridin-4-yl)-1H-pyrrolo[3,2-c]pyridin-6-ylcarbamate], the inhibition at 1 µM (single point inhibition @ 1 uM) fell in the range of 0 to 33%. In addition, under setting [1], the inhibition at 10 µM fell in the range of 67 to 100%.

Turning to `COc1nc(C)cc(-c2cc3cnc(NC(=O)c4cnn(C)c4)cc3[nH]2)n1` [Example 315, N-(2-(2-methoxy-6-methylpyrimidin-4-yl)-1H-pyrrolo[3,2-c]pyridin-6-yl)-1-methyl-1H-pyrazole-4-carboxamide], under setting [2], the inhibition at 1 µM lay within 0 to 33%. Also, under setting [3], the inhibition at 10 µM lay in the range of 0 to 33%.

In the case of `CCOc1nccc(-c2cc3cnc(NC(=O)[C@@H]4C[C@H]4C)cc3[nH]2)n1` (stereo in doubt) [Example 153, (1R,2R)-N-(2-(2-ethoxypyrimidin-4-yl)-1H-pyrrolo[3,2-c]pyridin-6-yl)-2-methylcyclopropanecarboxamide], the inhibition at 1 µM (single point inhibition @ 1 uM) lay within 0 to 33%. Under setting [1], the inhibition at 10 µM was in the range of 67 to 100%.

As for `Cc1cc(-c2[nH]c3cc(NC4CCOC4)ncc3c2C)ccn1` (stereo in doubt) [Example 368, (R)-3-methyl-2-(2-methylpyridin-4-yl)-N-(tetrahydrofuran-3-yl)-1H-pyrrolo[3,2-c]pyridin-6-amine], the EC50 is more than 1 µM.

With `COCc1cc2cnc(NC(=O)c3cnn(C)c3)cc2[nH]1` [Example 260, N-(2-(methoxymethyl)-1H-pyrrolo[3,2-c]pyridin-6-yl)-1-methyl-1H-pyrazole-4-carboxamide], the inhibition at 1 µM under setting [2] lay in the range of 0 to 33%. Besides, under setting [3], the inhibition at 10 µM lay within 0 to 33%.

The compound `Cn1c(-c2ccnc(C(F)(F)F)n2)cc2cnc(NC3CCOCC3)cc21` [Example 396, 1-methyl-N-(tetrahydro-2H-pyran-4-yl)-2-(2-(trifluoromethyl)pyrimidin-4-yl)-1H-pyrrolo[3,2-c]pyridin-6-amine] had an EC50 of more than 1 µM.

`O=C(Nc1cc2[nH]c(-c3cnc(C(F)(F)F)o3)cc2cn1)C1CC1` [Example 110, N-(2-(2-(trifluoromethyl)oxazol-5-yl)-1H-pyrrolo[3,2-c]pyridin-6-yl)cyclopropanecarboxamide]: the concentration for a half-maximal effect (EC50) is more than 1 µM.

In the case of `Cc1cc(-c2cc3cnc(NC(=O)C4CCC4)cc3[nH]2)ncn1` [Example 98, N-(2-(6-methylpyrimidin-4-yl)-1H-pyrrolo[3,2-c]pyridin-6-yl)cyclobutanecarboxamide], the EC50 is more than 1 µM.

`FC(F)(F)COc1nccc(-c2cc3cnc(NC4CCOCC4)cc3[nH]2)n1` [Example 380, N-(tetrahydro-2H-pyran-4-yl)-2-(2-(2,2,2-trifluoroethoxy)pyrimidin-4-yl)-1H-pyrrolo[3,2-c]pyridin-6-amine] yielded an EC50 of more than 1 µM.

For `Cn1c(-c2cccnc2)cc2cnc(Nc3cccc(-c4nc[nH]n4)c3)cc21` [Example 275, N-(3-(1H-1,2,4-triazol-3-yl)phenyl)-1-methyl-2-(pyridin-3-yl)-1H-pyrrolo[3,2-c]pyridin-6-amine], under setting [2], the inhibition at 1 µM lay within 0 to 33%. The inhibition at 10 µM under setting [3] fell in the range of 0 to 33%.

Compound `Cn1cc(Nc2cc3[nH]c(-c4ccnc(C#N)c4)cc3cn2)cn1` [Example 56, 4-(6-(1-methyl-1H-pyrazol-4-ylamino)-1H-pyrrolo[3,2-c]pyridin-2-yl)picolinonitrile] displayed a half-maximal effective concentration (EC50) of more than 1 µM. The inhibition at 1 µM (single point inhibition @ 1 uM) lay within 0 to 33%. Further, the inhibition at 10 µM under setting [1] is 67 to 100%.

`CC(C)n1cc(C(=O)Nc2cc3[nH]c(-c4ccnc(NCC(F)(F)F)n4)cc3cn2)cn1` [Example 172, 1-isopropyl-N-(2-(2-(2,2,2-trifluoroethylamino)pyrimidin-4-yl)-1H-pyrrolo[3,2-c]pyridin-6-yl)-1H-pyrazole-4-carboxamide]: for the setting “single point inhibition @ 1 uM”, the inhibition at 1 µM lay within 67 to 100%. The inhibition at 10 µM under setting [1] lay in the range of 67 to 100%.

`Cc1cc(-c2[nH]c3cc(NC4CCOCC4)ncc3c2C)ccn1` [Example 362, 3-methyl-2-(2-methylpyridin-4-yl)-N-(tetrahydro-2H-pyran-4-yl)-1H-pyrrolo[3,2-c]pyridin-6-amine] yielded an EC50 of more than 1 µM.

As for `Cc1cc(-c2cc3cnc(NC(=O)[C@H]4C[C@@H](O)C4)cc3[nH]2)ccn1` [Example 194, (1s,3s)-3-hydroxy-N-(2-(2-methypyridin-4-yl)-1H-pyrrolo[3,2-c]pyridin-6-yl)cyclobutanecarboxamide], the inhibition at 1 µM (single point inhibition @ 1 uM) lay in the range of 0 to 33%. Moreover, the inhibition at 10 µM under setting [1] is 67 to 100%.

As to `COc1ccc(C(=O)Nc2cc3[nH]c(-c4ccnc(C)c4)cc3cn2)cc1OC` [Example 296, 3,4-dimethoxy-N-(2-(2-methylpyridin-4-yl)-1H-pyrrolo[3,2-c]pyridin-6-yl)benzamide], the inhibition at 1 µM under setting [2] lay in the range of 0 to 33%. Moreover, the inhibition at 10 µM under setting [3] was 0 to 33%.

Turning to `COc1nccc(-c2cc3cnc(NC(=O)c4cnn([C@H]5CC[C@H](O)CC5)c4)cc3[nH]2)n1` [Example 219, 1-((1r,4r)-4-hydroxycyclohexyl)-N-(2-(2-methoxypyrimidin-4-yl)-1H-pyrrolo[3,2-c]pyridin-6-yl)-1H-pyrazole-4-carboxamide], the inhibition at 1 µM under setting [2] lay in the range of 0 to 33%. Further, the inhibition at 10 µM under setting [3] fell in the range of 33 to 66%.

Regarding `Cc1nccc(-c2cc3cnc(NC(=O)C4CCC4)cc3[nH]2)n1` [Example 99, N-(2-(2-methylpyrimidin-4-yl)-1H-pyrrolo[3,2-c]pyridin-6-yl)cyclobutanecarboxamide], the EC50 is more than 1 µM.

For the compound `COc1cc(Nc2cc3[nH]c(C#N)cc3cn2)cc(C2CCOCC2)c1` [Example 148, 6-(3-methoxy-5-(tetrahydro-2H-pyran-4-yl)phenylamino)-1H-pyrrolo[3,2-c]pyridine-2-carbonitrile], where the note is “single point inhibition @ 1 uM”, the inhibition at 1 µM lay in the range of 0 to 33%. Under setting [1], the inhibition at 10 µM is 67 to 100%.

Regarding `CCOc1nccc(-c2cc3cnc(NC(=O)c4cn(CCO)nc4C)cc3[nH]2)n1` [Example 233, N-(2-(2-ethoxypyrimidin-4-yl)-1H-pyrrolo[3,2-c]pyridin-6-yl)-1-(2-hydroxyethyl)-3-methyl-1H-pyrazole-4-carboxamide], the inhibition at 1 µM under setting [2] was 0 to 33%. Further, the inhibition at 10 µM under setting [3] was in the range of 33 to 66%.

On to `Cn1ccc(C(=O)Nc2cc3[nH]c(-c4ccncc4)cc3cn2)n1` [Example 238, 1-methyl-N-(2-(pyridin-4-yl)-1H-pyrrolo[3,2-c]pyridin-6-yl)-1H-pyrazole-3-carboxamide], for which the inhibition at 1 µM under setting [2] fell in the range of 0 to 33%. Besides, under setting [3], the inhibition at 10 µM was 0 to 33%.

With `O=C(Nc1cc2[nH]c(-c3ccc(F)cn3)cc2cn1)C1CC1` [Example 268, N-(2-(5-fluoropyridin-2-yl)-1H-pyrrolo[3,2-c]pyridin-6-yl)cyclopropanecarboxamide], under setting [2], the inhibition at 1 µM lay within 0 to 33%. Further, the inhibition at 10 µM under setting [3] was 0 to 33%.

In turn, `CCc1cc(-c2cc3cnc(NC4CCOCC4)cc3n2C)ncn1` [Example 389, 2-(6-ethylpyrimidin-4-yl)-1-methyl-N-(tetrahydro-2H-pyran-4-yl)-1H-pyrrolo[3,2-c]pyridin-6-amine] registered an EC50 of more than 1 µM.
